Laboratory results reported in patent US4937232A, “Inhibition of protein kinase C by long-chain bases” (priority 1988, dated 1990).
“Also recorded” adds a separate entry of the source. Read-outs that look alike come from different tables or passages of the source. Each block holds one compound with its values, some of them ahead of it.

Assays:
[1] = system: human neutrophils; experiment: Oxygen consumption (oxidative burst) of human neutrophils; type: cell-based; settings: for IC50: read-out: Concentration required for 50% inhibition; for RATE of oxygen consumption, NO SPHINGANINE: activator alone
From the text: Human neutrophils were obtained by continuous flow leukapheresis from normal adults. Residual erythrocytes were removed by hypotonic lysis with a resulting purity of >95% neutrophils. Alternatively peripheral blood was obtained by phlebotomy and neutrophils were isolated by HESPAN (6% Hetastarch, 0.9% NaCl) sedimentaion of erythrocytes, centrifugation through lymphocyte separation medium (9.4% sodium diatrizoate, 6.2% Ficoll), and hypotonic lysis of residual erythrocytes. Isolated cells were resuspended in phosphate buffered saline (PBS)-glucose, containing 0.6 mM CaCl2, 2.6 mM KCl, 1.5 mM KH2 PO4, 0.5 mM MgCl2, 136 mM NaCl, 8 mM Na2 HPO4, 5.5 mM glucose.
Oxygen consumption was measured using a Clark-type electrode with YSI model 53 oxygen monitor. Assays were conducted at 37° C. with 6.5×10^6 cells per ml with a total volume of either 2.5 ml or 4 ml. Effectors were injected into the electrode chamber using a Hamilton syringe. Initial slopes after the addition of the stimuli were used for rate calculations. For activators with a lag prior to the onset of the oxidative burst, maximal rates following the lag were used.

[2] = system: protein kinase C; experiment: Mixed micellar protein kinase C activity assay for lysosphingolipids (Table VI); type: biochemical; settings: for inhibition of protein kinase C activity / IC50: 6 mol % phosphatidylserine; for inhibition of protein kinase C activity: 2 mol % sn-1,2-dioleoylglycerol, 100 μM Ca2+; for Inhibition of Protein Kinase C, concentration giving 50% inhibition, (mol %): 0.3% Triton X-100, 1 mol % = 43 μM; for IC50: 0.3% Triton X-100 mixed micelles, 2 mol % dioleoylglycerol, read-out: Inhibition of Protein Kinase C, concentration giving 50% inhibition
Experimental: (§1) TABLE VI: Inhibition of protein kinase C activity and phorbol-dibutyrate binding by lysosphingolipids. […] The remaining two columns show the observed effects of the lysosphingolipids of protein kinase C activity and phorbol diester binding in vitro and in human platelets. Lysogangliosides were prepared from their parental gangliosides by hydrolysis in methanolic KOH esentially as described by Neuenhofer et al. in Bioch. 24, 525, 1985. During this preparation, with approximately 90-95% conversion, the N-acetate of N-acetylneuraminic acid is partially hydrolyzed. Fatty acids were partitioned into heptane after acidification of the methanolic reaction mixture. Galactosylsphingosine, glucosylsphingosine, and lactosylsphingosine were prepared as previously described for galactosylsphingosine (Radin, Lipids 9, 358, 1974) Sphingosylphosphorylcholine was prepared by hydrolysis in HCl-butanol (Kaller, Biochemische Zeitschrift 334, 451, 1961). The purity of the lyso derivatives (greater than 90%) was checked by thin layer chromatography (TLC) on silica gel H plates developed in chloroform/methanol/2N NH4 OH (65/35/9) and visualized by ninhydrin reaction for N-lyso compounds, by α-naphthol/sulfuric acid for both gangliosides and lysogangliosides,and by a phospholipid spray for sphingosylphosphorylcholine. Lysosphingolipids were quantitated by reaction of the amine group with trinitrobenzenesulfonate. Gangliosides and lysosphingolipids were also quantitated by reaction with anthrone. The lysosphingolipids were then studied for their effect on protein kinase C activity. Protein kinase C was purified to near homogeneity by the method of Wolf et al. (J. Biol. Chem. 260, 15718, 1985), and activity was measured using a mixed micellar assay (described herein). Lysosphingolipids were added directly in aqueous solution, and allowed to equilibrate with the Triton X-100 (0.3% w/v) mixed micelles containing 6 mol % phosphatidylserine and 2 mol % dioleoylglycerol. […] Phorbol-dibutyrate binding was measured in a mixed micellar assay. Lysosphingolipids inhibited phorbol-dibutyrate binding to protein kinase C in the presence of Triton X-100 mixed micelles containing 20 mol % phosphatidylserine. […] The difference is related to the higher concentration of phosphatidylserine used in the binding assay, as both activity and binding show a high cooperative dependence on phosphatidylserine, which modulates the inhibition by lysosphingolipids. Phorbol-dibutyrate binding to human platelets and 40 kDa phosphorylation in platelets were carried out as described above. Lysosphingolipids inhibited phorbol dibutyrate binding to human platelets at concentrations in the 10-50 μM range. Inhibition of 40 kDa phosphorylation occurred over the same concentration range.

[3] = system: protein kinase C; experiment: Triton X-100 mixed micellar assay for protein kinase C activity; type: biochemical, rat; settings: mixed micellar assay
Experimental: Protein kinase C was partially purified from rat brain as described by Hanrun et al (J. Biol. Chem., 260, 10043, 1985), which is hereby incorporated by reference.
Protein kinase C was assayed with Triton X-100 mixed micelles as described by Hanrun et al, (ibid.), Sphingosine was dried down with the lipid cofactors.

[4] = system: HL-60 cells; experiment: PMA-induced adherence (attachment) of HL-60 cells; type: cell-based, human; settings: for inhibition of PMA-induced attachment: 8 nM PMA
Experimental: Cells were centrifuged at 600 g for 3 min, and added at 1×10^5 cells per well in 12-well culture dishes. Medium, PMA, and long-chain bases (prepared as the 1:1 molar complex with fatty acid-free bovine serum albumin) at the indicated concentrations were added for a total volume of 2.0 ml. After the desired times, the cells in suspension were counted and checked for viability (trypan blue exclusion) with a hemacytometer. The attached cells were quantitated by measuring DNA content according to the method of West et al (Anal. Biochem., 147, 289-295, 1985) and by assaying for acid phosphatase according to the method of Schnyder (J. Exp. Med., 148, 434-445, 1978).

[5] = biological target: protein kinase C; experiment: Phorbol-dibutyrate binding to protein kinase C, mixed micellar assay (Table VI); settings: Triton X-100 mixed micelles, 20 mol % phosphatidylserine
Experimental: as §1

[6] = system: protein kinase C-induced phosphorylation of the 40 KDa polypeptide; experiment: 40K (40 kDa) protein phosphorylation in human platelets; type: cell-based; settings: concentrations less than 100 μM
Experimental: They were then suspended in modified Tyrode's buffer to a concentration of 2.5×10^8 platelets/ml.
^32 Pi at 0.2 mCi/ml was added to the platelet suspension and labelling was allowed to proceed for 75 minutes at 37° C., after which the platelets were pelleted at 600×g for 10 minutes and resuspended in Tyrode's buffer to the same concentration. They were then aliquoted in Eppendorf microfuge tubes and preincubated at 37° C. for 5 minutes with the varying concentrations of sphingosine. Platelets were then stimulated with either 5 μM dioctanoylglycerol (added as an ethanol solution with the final concentration of ethanol 0.5%), 10 μM TPA, or 1 unit/ml thrombin. The reactions were stopped after 30 seconds by the addition of an equal volume of 2× sample buffer, and the samples were then boiled for 3 minutes. […] Gels were subsequently fixed in water/methanol/acetic acid (60:30:10), dried, and autoradiographed.

[7] = oxidative burst, PMA activation
[8] = Homo sapiens, Neutrophil, oxidative burst, PMA activation

IC50 [1, 7]: > 100 µM
Compound: 3-amino-3-hydroxy-3-phenyl-propanol [reference compound]

inhibition of protein kinase C activity [2]: None of the parent compounds inhibited
Compound: sphingomyelin [reference compound]

Compound: CCCCCCCCCCCCCCCCCCN [Stearylamine, reference compound]
inhibition of protein kinase C (specificity) [3]: nearly as effective as sphingosine
IC50 [1, 8]: 25 µM
IC50 ([4]; Homo sapiens, HL-60, read-out: 50% inhibition of PMA-induced attachment): 10 µM

Compound: CCCCCCCCCCCCC/C=C/[C@@H](O)[C@@H](N)COP(=O)([O-])OCC[N+](C)(C)C [sphingosylphosphorylcholine]
Inhibition of Protein Kinase C, concentration giving 50% inhibition, (mol %) [2]: 2.8 mol %
IC50 [2]: 120 µM
Inhibition of [3H]PDBu Binding to Protein Kinase, (mol %) [5]: 11.6 mol %
IC50 ([5]; read-out: Inhibition of [3H]PDBu Binding to Protein Kinase): 500 µM

inhibition of protein kinase C (specificity) [3]: did not inhibit
IC50 [1, 8]: 300 µM
Compound: CCCCCCCCN [Octylamine, reference compound]
inhibition of PMA-induced attachment [4]: did not inhibit

Compound: CCCCCCCCCCCCC/C=C/[C@@H](O)[C@H](COP(=O)([O-])OCC[N+](C)(C)C)NC(C)=O [reference compound]
inhibition of protein kinase C activity [2]: None of these N-acetyl derivatives inhibited
effect on 40 kDa phosphorylation in platelets [6]: did not affect

Compound: CCCCCCCCCCCCCCCC(=O)NC(CO)C(O)CCCCCCCCCCCCCCC (stereo not shown) [N-palmitoyldihydrosphingosine, reference compound]
inhibition of PMA-induced attachment [4]: not inhibitory

Compound: O[C@H]1[C@H]2[C@H](O)CCCN2C[C@H]1O [Swainsonine]
inhibition of protein kinase C (specificity) [3]: not an inhibitor

Compound: CCCCCCCCCCCCC/C=C/[C@@H](O)[C@H](CO[C@@H]1O[C@H](CO)[C@H](O)[C@H](O)[C@H]1O)NC(C)=O [reference compound]
inhibition of protein kinase C activity [2]: None of these N-acetyl derivatives inhibited
effect on 40 kDa phosphorylation in platelets [6]: did not affect

Compound: CCCCC/C=C\C/C=C\C/C=C\C/C=C\CCCC(=O)O [Arachidonate, reference compound]
RATE of oxygen consumption, NO SPHINGANINE [1]: 4.2 nmols O2 consumed/min/10^6 cells

Inhibition of Protein Kinase C, concentration giving 50% inhibition, (mol %) [2]: 4.2 mol %
IC50 [2]: 180 µM
Compound: CCCCCCCCCCCCC/C=C/[C@@H](O)[C@@H](N)CO[C@@H]1O[C@H](CO)[C@@H](O[C@@H]2O[C@H](CO)[C@H](O[C@H]3O[C@H](CO)[C@H](O)[C@H](O)[C@H]3O)[C@H](O)[C@H]2O)[C@H](O)[C@H]1O [globotriosylsphingosine]

Compound: CCCCCCCCCCCCC/C=C/[C@@H](O)[C@H](CO)NC(C)=O [N-acetylsphingosine]
inhibition of protein kinase C (specificity) [3]: without effect; also recorded: not to be inhibitors

Compound: CCCCCCCCCCCCCCCC[N+](C)(C)C.[Br-] [CTAB, cetyl trimethylammonium bromide]
inhibition of protein kinase C (specificity) ([3]; listed as cetyl triethylammonium bromide): inactive; also recorded: not to be inhibitors
IC50 [1, 8]: > 100 µM

Compound: NC(CO)C(O)c1ccccc1 (stereo not shown) [1,3-dihydroxy-2-amino-3-phenylpropane]
inhibition of protein kinase C (specificity) [3]: not to be inhibitors
inhibition of protein kinase C (specificity) ([3]; listed as 1,3-dihydroxy-2-amino-3 phenylpropane): without effect
inhibition of PMA-induced attachment [4]: did not inhibit

inhibition of protein kinase C (specificity) [3]: inhibitors
IC50 [1, 8]: 24 µM
Compound: CCCCCCCCCCCCCCC[C@H](O)[C@@H](N)CO (relative stereo) [threo-Sphinganine]
times less effective than erythro-sphinganine [1, 7]: 3-4 times

Compound: CCCCCCCC(=O)OCC(CO)OC(=O)CCCCCCC (stereo not shown) [Dioctanoyl Glycerol, 1,2-dioctanoylglycerol, reference compound]
RATE of oxygen consumption, NO SPHINGANINE [1]: 6.1 nmols O2 consumed/min/10^6 cells

inhibition of protein kinase C (specificity) [3]: inhibitors
Compound: CCCCCCCCCCCCCCCC(=O)C(N)CO (stereo not shown) [3-ketosphinganine]

IC50 [1, 8]: > 100 µM
Compound: CCCCCCCCCCCCCCC[C@@H](O)[C@H](CO)NC(C)=O [N-acetylsphinganine, reference compound]
inhibition of PMA-induced attachment ([4]; at up to 500 μM): not inhibitory
